This note sets out measurements from US20250136601A1 (priority 2022, published 2025).

“And” between values parts separate entries of the source, which are not always exact repeats. Equal values may be shown once. Read-outs that look alike come from different tables or passages of the source.

For series [1], the target named is T1, 5-HT2A receptor (Homo sapiens (Human), UniProt P28223). The experiment in a line: cell-based. The format is cell-based. The following applies: for Emax: HEK-293T, read-out: β-arrestin2 signaling agonistic activity (percentage in parentheses); for pathway selectivity: β-arrestin2 recruitment versus G protein signaling: without activating the G protein signaling pathway; for Gq signaling agonistic activity (percentage in parentheses): value in parentheses. Here is the method:
On the second day, the confluent cells from a 6 cm culture dish were digested and reseeded into a 96-well plate at a volume of 100 μL of culture medium per well. On the third day, the drugs were added for testing. The 96-well plate was taken out from the cell incubator to decant the culture medium. 40 μL of the substrate coelenterazine 400a (final concentration 5 μM) was added to each well, and then 20 μL of different drugs were added sequentially from left to right, ensuring that the final concentration of the drug decreased gradually from bottom to top, with two replicates per treatment. Finally, the prepared samples were loaded on a plate reader for signal quantification. The readout values reflected the recruitment of β-arrestin2 to the membrane or the dissociation of G protein trimer. The former indicated the degree of activation of the downstream β-arrestin2 signaling pathway mediated by the 5-HT2A receptor, and the latter indicated the degree of activation of the downstream G protein signaling pathway mediated by the 5-HT2A receptor.

In series [2] the target is T1, 5-HT2A receptor. The experiment in a line: radioligand competitive binding assay, [3H]-LSD, 293T membranes.
The target in another series is dopamine D2 receptor (Homo sapiens (Human), UniProt P14416). The experiment in a line: radioligand competitive binding assay, [3H]-Methylspiperone, 293T membranes. The following applies: affinity for the dopamine D2 receptor.
dopamine D2 receptor, sequence (P14416 whole entry, species assumed): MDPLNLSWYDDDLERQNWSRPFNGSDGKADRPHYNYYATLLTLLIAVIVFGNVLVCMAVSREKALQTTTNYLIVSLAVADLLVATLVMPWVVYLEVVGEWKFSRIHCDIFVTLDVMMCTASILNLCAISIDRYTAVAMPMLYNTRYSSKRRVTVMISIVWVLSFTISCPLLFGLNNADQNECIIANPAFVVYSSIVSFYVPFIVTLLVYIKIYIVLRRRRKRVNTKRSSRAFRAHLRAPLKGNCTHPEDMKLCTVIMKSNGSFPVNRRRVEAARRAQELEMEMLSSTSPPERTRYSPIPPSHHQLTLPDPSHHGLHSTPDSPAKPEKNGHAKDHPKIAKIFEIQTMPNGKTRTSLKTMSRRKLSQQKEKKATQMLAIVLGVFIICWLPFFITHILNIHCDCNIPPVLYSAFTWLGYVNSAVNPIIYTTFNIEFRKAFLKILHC
Series [3] concerns head-twitch response in mice. The format is in vivo, C57BL/6J mice. The note with it: intraperitoneal, at all doses tested, first 30 minutes. From the text:
Method: The head-twitch response in mice was detected via oscillatory signals to characterize hallucinogenic effects. Mice (strain C57BL/6J, purchased from Shanghai Lingchang Biotech Co., Ltd.) were anesthetized with 2% isoflurane. A small portion of the scalp was removed from the center of the dorsal cranium. A custom-made small neodymium magnet (4 mm×4 mm×2 mm) was attached to the center of the dorsal cranium using dental resin. The magnet N-S poles were kept parallel to the dorsoventral aspect of the implant. The mice were allowed to recover for 1 week before testing. To record precise head movements, the mice were placed in a glass beaker with a diameter of 12 cm, surrounded by 150 turns of #30 enameled copper wire. The output signal from the coil was recorded using a PowerLab/4SP instrument installed with LabChart V8.1.16 software. Coil voltage was amplified, low-pass filtered at 10 kHz to remove radio frequency interference, and sampled at 40 kHz. For the detection of head-twitch response in mice, LabChart data were processed with a digital band-pass filter at 40 to 200 Hz. The head-twitch response in mice was identified by searching for sinusoidal wavelets that met the following criteria: 1) containing more than two bipolar peaks; 2) amplitude exceeding background noise level; 3) duration less than 120 milliseconds. 1 hour prior to the test, the mice were transferred to the test room for acclimatization. Subsequently, the mice were placed in the beaker for 30 minutes, and baseline head-twitch response values were recorded. Immediately after baseline recording, the mice were injected intraperitoneally with the test compound, and head-twitch response values were recorded for 1 to 2 hours post-dose, depending on the compound used. Statistical values were taken from the first 30 minutes.

Series [4] concerns corticosterone-exposed mice. The series is described as follows: tail suspension test after 21 days of corticosterone exposure. Type of series: in vivo, Male C57BL/6 mice. On the procedure: Antidepressant efficacy test method: Male C57BL/6 mice (8 weeks old, purchased from Shanghai Lingchang Biotech Co., Ltd.) were administered a solution of corticosterone in their drinking water at a concentration of 25 μg/mL using drinking water bottles for 21 days. Mice were maintained on a 12-hour light cycle. Corticosterone-containing drinking water was refreshed every other day for the first two weeks, and gradually replaced with corticosterone-free drinking water every two days for the last week. […] TST procedure: mice in the control group and the administration group were suspended by their tails with tape for 6 minutes, and their behavior was recorded by a video camera. The immobility time during the last 4 minutes was manually timed and assessed by an observer who was unaware of the treatment conditions.

The conditions of series [5]: for AUMC0-inf / AUMC0-t / Kel: 5 mg/kg IP, mice.
Method: (§1) The concentration of the compound in mouse plasma was determined using LC-MS/MS, and the relevant pharmacokinetic parameters were calculated to investigate the pharmacokinetic characteristics of the compound in mice.
(§2) Experimental design: 60 male C57 mice (purchased from Suzhou JOINN Laboratory Animal Co., Ltd.) were randomly divided into groups based on weight, with 3 mice per group. The mice were fasted with water ad libitum for 12 to 14 hours one day before test-article administration and fed 4 hours after the administration. The route of administration was intraperitoneal (IP), with a dosing concentration of 1 mg/mL, and a solvent formulation of 10% DMSO+90% saline.
(§3) Sample collection: 0.1 mL of blood was collected from the orbit under isoflurane anesthesia before and after test-article administration, transferred to EDTA K2 tubes, and placed on an ice bath. The samples were centrifuged at 5000 rpm for 10 minutes at 4° C., and the plasma was collected. […] Prior to analysis, all plasma samples were stored at −80° C.
(§4) Data processing: Drug concentrations in plasma and brain tissues were measured using LC-MS (API4000QTRAP triple quadrupole tandem mass spectrometer, equipped with an electrospray ionization source (ESI)). The data collection and control system software utilized was Analyst 1.5.1 (Applied Biosystems). The sample peak integration in the spectrum was conducted automatically; the ratio of the sample peak area to the internal standard peak area was used as an indicator to perform regression with the concentration of the sample. Regression method: Linear regression with a weighting factor of 1/X^2. Pharmacokinetic parameters were analyzed using a non-compartmental model in WinNonlin Professional v6.3 (Pharsight, USA). Cmax is the measured maximum plasma concentration, the area under the plasma concentration-time curve (AUC(0→0)) was calculated by the trapezoidal method, and Tmax is the time to reach peak plasma concentration after administration. Experimental data are presented as “Mean±Standard Deviation” (Mean±SD, n≥3) or “Mean” (n=2).
A further series is described as follows: in vivo. The note with it: male, C57, mouse, ip, 5 mg/kg; for half-life: 5 mg/kg IP, mice.
Where [6] appears, read: affinity for the 5-HT2A receptor, [3H]-LSD.
[7] abbreviates: first value of cell, NA = no agonistic activity, read-out: Gq signaling agonistic activity (potency).
[8] abbreviates: first value of cell, NA = no agonistic activity, read-out: β-arrestin2 signaling agonistic activity (potency).

T1 sequence (P28223 whole entry): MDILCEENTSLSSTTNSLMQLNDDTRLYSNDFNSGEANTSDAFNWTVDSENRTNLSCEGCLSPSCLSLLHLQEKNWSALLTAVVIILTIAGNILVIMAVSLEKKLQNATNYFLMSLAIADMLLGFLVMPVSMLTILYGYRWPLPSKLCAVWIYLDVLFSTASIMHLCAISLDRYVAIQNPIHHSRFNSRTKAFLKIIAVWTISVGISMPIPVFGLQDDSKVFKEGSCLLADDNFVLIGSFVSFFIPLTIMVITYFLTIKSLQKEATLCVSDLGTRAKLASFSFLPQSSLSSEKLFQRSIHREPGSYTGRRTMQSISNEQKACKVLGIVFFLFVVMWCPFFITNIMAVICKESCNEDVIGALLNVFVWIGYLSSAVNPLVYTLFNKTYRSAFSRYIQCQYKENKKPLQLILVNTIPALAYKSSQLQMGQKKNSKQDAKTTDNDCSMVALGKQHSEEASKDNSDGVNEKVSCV
Method for dopamine D2 receptor: Method: The affinity of the compounds of the present disclosure for the dopamine D2 receptor was determined using a radioligand competitive binding assay as follows. In the first step, a cell membrane component containing dopamine D2 receptor was prepared. […] 48 hours post-transfection, the 10 cm culture dish was taken out from the cell incubator and the cultured cells had expressed the dopamine D2 receptor. The culture medium was aspirated using a vacuum pump, and 3 mL of lysis buffer was added to each culture dish. The cells were then placed in a cold room at 4° C. for 10 minutes. After the cells were detached, they were transferred to a 15 mL centrifuge tube and centrifuged at 1500 rpm for 5 minutes at 4° C., and the supernatant was discarded. The cell pellet was transferred to a tissue homogenizer, and 3 mL of lysis buffer was added. Sufficient grinding was applied to break the cells. The cell suspension was then equally aliquoted into several Eppendorf tubes and centrifuged at 12000 rpm for 5 minutes at 4° C., and the supernatant was discarded. The resulting precipitate was the cell membrane component containing the dopamine D2 receptor. […] The machine readout value reflected the amount of [3H]-Methylspiperone bound on the membrane, and after further data processing, the affinity Ki values of different compounds for the dopamine D2 receptor were obtained.
Method for in vivo: as §1, §2, §3, §4

One may read the Ki as the equilibrium dissociation constant of an inhibitor or competing ligand from its target. `COc1ccccc1CCN1CC[C@@H]2[C@H](C1)c1cccc3c1N2CCCN3C` (single isomer, unassigned) [Compound I-13]: on 5-HT2A receptor [1], the EC50 was found to be 0.181 µM, the Emax was 51.4% and the “pathway selectivity: β-arrestin2 recruitment versus G protein signaling” value (shortened to “pathway selectivity”) was “selectively activate the recruitment of β-arrestin2”. The inhibition constant Ki on 5-HT2A receptor [2] was under 0.1 µM. Also, the affinity on 5-HT2A receptor [2] (setting [6]), expressed as Ki, was 0.034 µM.
For `COc1ccccc1CCCN1CC[C@H]2[C@@H](C1)c1cccc3c1N2CCC3` (single isomer, unassigned) [Compound I-18, 10-(3-(2-methoxyphenyl)propyl)-5,6,7a,8,9,10,11,11a-octahydro-4H-pyrido[3′,4′:4,5]pyrrolo[3,2,1-i]quinoline], the Ki on 5-HT2A receptor [2] was under 0.1 µM.
On to `COc1ccccc1CCN1CC[C@H]2[C@@H](C1)c1cccc3c1N2CCCN3C` (single isomer, unassigned) [Compound I-12], for which the results for the Ki on 5-HT2A receptor [2] and on 5-HT2A receptor [2] (setting [6]) were under 0.1 µM and 0.19 µM, respectively.
Regarding `COc1ccccc1CCN1CC[C@H]2[C@@H](C1)c1cccc3c1N2CCN3C` [Compound I-3], on 5-HT2A receptor [1], the Emax worked out at 39% and the “Gq signaling agonistic activity (percentage in parentheses)” value worked out at 20.2%. Further, the Ki on dopamine D2 receptor came out at 1.55 µM. Moreover, the “hallucinogenic effects (head-twitch response)” value in series [3] is given as “did not induce hallucinogenic effects”. In addition, the Ki on 5-HT2A receptor [2] is under 0.1 µM.
As for `CN1CCN2c3c(cccc31)[C@@H]1CN(Cc3ccccc3O)CC[C@@H]12` [Compound I-2], on 5-HT2A receptor [1], the Emax is 68.4% and the “Gq signaling agonistic activity (percentage in parentheses)” value amounted to 65.3%. Besides, the EC50 at 5-HT2A receptor [1] (setting [7]) amounted to 0.309 µM. Besides, at 5-HT2A receptor [1] (setting [8]), the EC50 was 0.229 µM.
For the compound `COc1ccc(CCN2CC[C@H]3[C@@H](C2)c2cccc4c2N3CCN4C)cc1` [Compound I-5], at 5-HT2A receptor [1], the EC50 was determined as 0.684 µM and the Emax turned out to be 3.2%.
Turning to `COc1ccccc1CN1CC[C@H]2[C@@H](C1)c1cccc3c1N2CCN3C` [Compound I-1], on 5-HT2A receptor [1], the Emax came to 60.2% and the “Gq signaling agonistic activity (percentage in parentheses)” value is given as 67.0%. In addition, on 5-HT2A receptor [1] (setting [7]), the EC50 is 0.12 µM. At 5-HT2A receptor [1] (setting [8]), the EC50 was 0.174 µM.
Take `COc1ccccc1CCCN1CC[C@H]2[C@@H](C1)c1cccc3c1N2CCCN3C` (single isomer, unassigned) [Compound I-14]: the Ki at 5-HT2A receptor [2] is under 0.1 µM.
`COc1ccc(OC)c(CCN2CC[C@H]3[C@@H](C2)c2cccc4c2N3CCN4C)c1` [Compound I-8, (6bR,10aS)-8-(2,5-dimethoxy)-3-methyl-2,3,6b,7,8,9,10,10a-octahydro-1H-pyrido[3′,4′:4,5]pyrrolo[1,2,3-de]quinoxaline] gave a Ki on 5-HT2A receptor [2] (setting [6]) of 3.06 µM.
As for `CN1CCN2c3c(cccc31)[C@@H]1CN(CCc3ccccc3O)CC[C@@H]12` [Compound I-9, 2-(2-((6bR,10aS)-3-methyl-2,3,6b,9,10,10a-hexahydro-1H-pyrido[3′,4′:4,5]pyrrolo[1,2,3-de]quinoxalin-8(7H)-yl)ethyl)phenol], the EC50 at 5-HT2A receptor [1] stood at 0.0759 µM. Further, the Emax at 5-HT2A receptor [1] came out at 14.4%. Further, the Ki at 5-HT2A receptor [2] is under 0.1 µM; on 5-HT2A receptor [2] (setting [6]) it was 0.031 µM.
Consider `COc1ccccc1CCCN1CC[C@H]2[C@@H](C1)c1cccc3c1N2CCCS3` (single isomer, unassigned) [Compound I-26], for which the Ki is under 0.1 µM on 5-HT2A receptor [2] and 0.093 µM at 5-HT2A receptor [2] (setting [6]).
The term MRT denotes the average time that molecules of a dose stay in the body. A word on the Cmax: it is the maximum level reached in the sampled fluid or tissue. One may read the Tmax as the time at which the peak concentration occurs. A word on the half-life: it is how long it takes for the measured level to halve. Higher therefore signals slow loss. For `COc1ccccc1CCCN1CC[C@@H]2[C@H](C1)c1cccc3c1N2CCO3` (single isomer, unassigned) [Compound I-23], in series [3], the “hallucinogenic effects (head-twitch response)” value is listed as “did not induce hallucinogenic effects”. The “antidepressant effect in the mouse tail suspension test” value in series [4] (10 mg/kg single-injection group, after 7 days) was “remained significant”; in series [4] (10 mg/kg single-injection group, after 14 days), “remained significant”; in series [4] (one day after a single administration), “significant antidepressant effect”. The AUMC0-inf in series [5] (brain) was 1698 h · h · ng · g^−1; in series [5] (plasma), 794 h · h · ng · mL^−1. Further, the figures for the AUMC0-t in series [5] (brain) and in series [5] (plasma) were 1645 h · h · ng · g^−1 and 769 h · h · ng · mL^−1, respectively. Besides, the Kel in series [5] (brain) is 0.630 h⁻¹; in series [5] (plasma), 0.678 h⁻¹. Further, the MRT in series [5] (male, C57, mouse, in vivo, ip, 5 mg/kg) was determined as 0.932 h; in the series “in vivo” (MRT), 1.47 h. In addition, the AUC0-t in series [5] (mouse, in vivo, ip, 5 mg/kg) was 1816 ng·h/g; in the series “in vivo”, 0.537 µg·h/mL. Moreover, in the series “in vivo”, the Cmax was 272 ng/mL and 1420 ng/g. The Tmax in “in vivo” came to 0.5 h. The half-life in the series “in vivo” (T1/2, brain) is 1.1 h; in “in vivo” (T1/2, plasma) it was 1.02 h.
Consider `COc1ccccc1CCCN1CC[C@@H]2[C@H](C1)c1cccc3c1N2CCCS3` [Compound I-27, (8aR,12aS)-11-(3-(2-methoxyphenyl)propyl)-6,7,8a,9,10,11,12,12a-octahydro-5H-pyrido[4,3-b][1,4]thiazepino[2,3,4-hi]indole], for which, at 5-HT2A receptor [1], the EC50 is 0.878 µM, the Emax is 35.7% and the “pathway selectivity” value was “selectively activate the recruitment of β-arrestin2”. This compound displayed a Ki on 5-HT2A receptor [2] of under 0.1 µM. On 5-HT2A receptor [2] (setting [6]), this compound gave a Ki of 0.008 µM.
As to `COc1ccccc1CCCN1CC[C@@H]2[C@H](C1)c1cccc3c1N2CCCN3C` (single isomer, unassigned) [Compound I-15], on 5-HT2A receptor [1], the EC50 is 0.0972 µM and the Emax is 24.3%. This compound also had a Ki at 5-HT2A receptor [2] of under 0.1 µM.
Take `COc1cccc(CCN2CC[C@H]3[C@@H](C2)c2cccc4c2N3CCN4C)c1` [Compound I-4]: on 5-HT2A receptor [1], the Emax came to 44.2% and the “Gq signaling agonistic activity (percentage in parentheses)” value was determined as 13.7%. Moreover, the Ki on 5-HT2A receptor [2] is under 0.1 µM.
As to `COc1ccccc1CCCN1CC[C@@H]2[C@H](C1)c1cccc3c1N2CCC3` (single isomer, unassigned) [Compound I-19], at 5-HT2A receptor [1], the EC50 came to 0.562 µM, the Emax is 59.4% and the “pathway selectivity” value was “selectively activate the recruitment of β-arrestin2”. Moreover, the Ki on 5-HT2A receptor [2] was under 0.1 µM. Moreover, the affinity at 5-HT2A receptor [2] (setting [6]) corresponds to a Ki of 0.018 µM.
In the case of `CN1CCN2c3c(cccc31)[C@@H]1CN(CCCc3ccccc3O)CC[C@@H]12` [Compound I-11, 2-(3-((6bR,10aS)-3-methyl-2,3,6b,9,10,10a-hexahydro-1H-pyrido[3′,4′:4,5]pyrrolo[1,2,3-de]quinoxalin-8(7H)-yl)propyl)phenol], on 5-HT2A receptor [1], the Emax stood at 36.8% and the “Gq signaling agonistic activity (percentage in parentheses)” value came to 9.7%. At 5-HT2A receptor [2], this compound gave a Ki of under 0.1 µM. In addition, the Ki on 5-HT2A receptor [2] (setting [6]) came to 0.089 µM.
